In patent US20210395210A1, “INHIBITION OF BACTERIAL CHAPERONIN SYSTEMS” (THE TRUSTEES OF INDIANA UNIVERSITY, priority 2018, published 2021):
Where two headings read alike, the source gives them in different places.

Experiments:
E. coli GroEL/ES = target: T1, E. coli GroEL/ES (Escherichia coli, UniProt P0A6F5); assay: GroEL/ES-mediated dMDH refolding assay; format: biochemical; conditions: for inhibition in the GroEL/ES-mediated refolding assays (in words): dMDH and dRho refolding assays; for log(IC50) GroEL/ES-dMDH Refolding: log of IC50 (μM scale), with standard deviation; for selectivity for E. coli GroEL/ES over human HSP60/10 (in words): GroEL/ES-dMDH vs HSP60/10-dMDH IC50
T1 construct: made in house; host or cells: GroEL in E. coli DH5α; GroES in E. coli BL21 (DE3)
Description: Reagent preparation: For these assays, four primary reagent stocks were prepared: 1) GroEUES-dMDH or HSP60/10-dMDH binary complex stock; 2) ATP initiation stock; 3) EDTA quench stock; 4) MDH enzymatic assay stock. Denatured MDH (dMDH) was prepared by 2-fold dilution of MDH (5 mg/ml, soluble pig heart MDH from Roche, product #10127248001) with denaturant buffer (7 M guanidine-HCl, 200 mM Tris, pH 7.4, and 50 mM DTT). MDH was completely denatured by incubating at room temperature for 45 min. The binary complex solutions were prepared by slowly adding the dMDH stock to a stirring stock with GroEL (or HSP60) in folding buffer (50 mM Tris-HCl, pH 7.4, 50 mM KCl, 10 mM MgCl2, and 1 mM DTT), followed by addition of GroES (or HSP10). The binary complex stocks were prepared immediately prior to dispensing into the assay plates and had final protein concentrations of 83.3 nM GroEL (Mr 800 kDa) or HSP60 (Mr 400 kDa), 100 nM GroES or HSP10 (Mr 70 kDa), and 20 nM dMDH in folding buffer. For the ATP initiation stock, ATP solid was diluted into folding buffer to a final concentration of 2.5 mM. Quench solution contained 600 mM EDTA (pH 8.0). The MDH enzymatic assay stock consisted of 20 mM sodium mesoxalate and 2.4 mM NADH in reaction buffer (50 mM Tris-HCl, pH 7.4, 50 mM KCl, and 1 mM DTT).
Assay Protocol: First, 30 μL aliquots of the GroEL/ES-dMDH or HSP60/10-dMDH binary complex stocks were dispensed into clear, 384-well polystyrene plates. […] The chaperonin-mediated refolding cycles were initiated by addition of 20 μL of ATP stock (reagent concentrations during refolding cycle: 50 nM GroEL or HSP60, 60 nM GroES or HSP10, 12 nM dMDH, 1 mM ATP, and compounds of 100 μM to 46 nM, 3-fold dilution series). The refolding reactions were incubated at 37° C. […] Next, the assay was quenched by addition of 10 μL of the EDTA to final concentration of 100 mM. […] A340 nm measurements were recorded at 0.5 minutes (start point) and at successive time points until the amount of NADH consumed reached ˜90% (end point, generally between 20-35 minutes). The differences between the start and end point A340 values were used to calculate the % inhibition of the GroEL/ES or HSP60/10 machinery by the compounds. […] Results presented represent the averages of IC50 values obtained from at least quadriplicate (duplicate of duplicate) replicates.
After generating the compound library, we next employed a series of well-established biochemical assays to evaluate compound inhibitory effects against the GroEUES chaperonin system (See FIG. 6 and FIG. 7). We used E. coli GroEUES as the surrogate chaperonin system for refolding of the reporter enzymes malate dehydrogenase (MDH) and rhodanese (Rho). Briefly, binary complexes are formed between GroEL and denatured MDH or Rho, which are then refolded to their native states upon addition of ATP and the GroES co-chaperonin. Enzymatic activities of refolded native MDH or Rho act as coupled reporters of GroEUES refolding functions since in the presence of chaperonin inhibitors, no functional reporter enzymes are generated.

native Rho (rhodanese) = target: T2, native Rho (rhodanese) (Bos taurus, UniProt P00586); assay: Counter-screen for inhibition of native rhodanese enzymatic activity; format: biochemical; conditions: for inhibition of native Rho enzymatic activity (in words): false-positive counter-screen; for IC50: read-out: Biochemical Assay IC50 Native Rho Reporter; for log(IC50) Native Rho Reporter: log of IC50 (μM scale), with standard deviation
T2 construct: purchased Roche (so in the source) R1756
T2 sequence (P00586 1-297): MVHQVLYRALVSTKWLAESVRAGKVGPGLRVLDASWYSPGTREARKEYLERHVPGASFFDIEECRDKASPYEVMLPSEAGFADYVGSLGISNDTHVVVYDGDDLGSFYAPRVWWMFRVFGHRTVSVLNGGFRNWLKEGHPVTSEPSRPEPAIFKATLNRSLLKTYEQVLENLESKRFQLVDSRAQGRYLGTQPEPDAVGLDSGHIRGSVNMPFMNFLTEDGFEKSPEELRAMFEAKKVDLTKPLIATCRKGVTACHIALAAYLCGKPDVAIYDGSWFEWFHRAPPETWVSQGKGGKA
Description: Reagent Preparations & Assay Protocol: Reagents were identical to those used in the GroEUES-dRho refolding assay described above; however, the assay protocol differed in the sequence of compound addition to the wells. Compounds were pin-transferred after the 60 minute incubation for the refolding cycle, but prior to the addition of the thiocyanate enzymatic assay stock. Thus, the refolding reactions were allowed to proceed for 60 min at 37° C. in the absence of test compounds, but the enzymatic activity of the refolded rhodanese reporter enzyme was monitored in the presence of test compounds (inhibitor concentration range during the enzymatic reporter reaction is 100 µM to 46 nM-3-fold dilutions). IC50 values for the rhodenase reporter enzyme were determined as described above. Results presented represent the averages of IC50 values obtained from at least quadriplicate (duplicate of duplicate) replicates.

in vitro = conditions: human
Description: HEK 293 cells were maintained in MEM medium (Corning Cellgro, 10-009 CV) supplemented with 10% FBS (Sigma, F2242). […] Cells at 80% confluence were harvested and diluted in growth medium, then 45 μL of the THLE-3 cells (1,500 cells/well) or HEK 293 cells (1,500 cells/well) were dispensed per well, and plates were sealed with “Breathe Easy” oxygen permeable membranes (Diversified Biotech) and incubated at 37° C., 5% CO2, for 24 h.

[1] = read-out: Biochemical Assay IC50 GroEL/ES-dMDH refolding

T1 sequence (P0A6F5 2-548): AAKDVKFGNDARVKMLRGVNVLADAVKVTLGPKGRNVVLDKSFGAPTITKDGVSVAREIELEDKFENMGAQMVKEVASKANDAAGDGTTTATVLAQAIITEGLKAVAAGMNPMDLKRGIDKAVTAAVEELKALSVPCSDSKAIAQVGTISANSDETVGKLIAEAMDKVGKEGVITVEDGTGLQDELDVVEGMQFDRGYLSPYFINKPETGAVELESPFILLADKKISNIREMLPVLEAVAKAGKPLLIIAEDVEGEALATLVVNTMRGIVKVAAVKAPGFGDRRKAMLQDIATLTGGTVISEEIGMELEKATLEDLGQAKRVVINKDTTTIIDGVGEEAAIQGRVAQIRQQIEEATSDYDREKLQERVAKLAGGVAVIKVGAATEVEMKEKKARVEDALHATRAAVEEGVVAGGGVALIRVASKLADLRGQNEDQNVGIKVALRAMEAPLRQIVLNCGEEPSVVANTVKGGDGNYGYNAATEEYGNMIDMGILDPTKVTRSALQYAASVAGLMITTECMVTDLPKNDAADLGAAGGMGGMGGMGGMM

Compound	inhibition in the GroEL/ES-mediated refolding assays (in words) (E. coli GroEL/ES)	log(IC50) GroEL/ES-dMDH Refolding (E. coli GroEL/ES)	IC50 (E. coli GroEL/ES; [1]) [µM]	inhibition of native Rho enzymatic activity (in words) (native Rho (rhodanese))	IC50 (E. coli GroEL/ES) [µM]	IC50 (native Rho (rhodanese)) [µM]	selectivity for E. coli GroEL/ES over human HSP60/10 (in words) (E. coli GroEL/ES)	log(IC50) Native Rho Reporter (native Rho (rhodanese))	CC50 at 48 h (in vitro) [µM]
O=C(Nc1ccc(Sc2nc3ccccc3s2)cc1)c1cccc(Br)c1O [Compound 6, N-(4-(Benzo[d]thiazol-2-ylthio)phenyl)-3-bromo-2-hydroxybenzamide]	moderate to potent inhibitors	1.52 ± 0.21	33	inactive against the reporter enzymes					
O=C(Nc1ccc(Sc2nc3ccccc3s2)cc1)c1cccc(Br)c1 [Compound 21, N-(4-(Benzo[d]thiazol-2-ylthio)phenyl)-3-bromobenzamide]					> 100	> 100			
O=C(Nc1ccc(Sc2nc3ccccc3s2)cc1)c1ccccc1O [Compound 8, N-(4-(Benzo[d]thiazol-2-ylthio)phenyl)-2-hydroxybenzamide]		1.60 ± 0.26	40			> 100	selectively inhibit E. coli GroEUES over human HSP60/10		
O=C(Nc1cccc(Cl)c1)c1ccccc1O [Compound 12, N-(3-Chlorophenyl)-2-hydroxybenzamide]		>2			> 100	> 100		>2	
O=C(Nc1cccc(Cl)c1)c1cc(Br)cc(Br)c1 [Compound 23, 3,5-Dibromo-N-(3-chlorophenyl)benzamide]		>2			> 100	> 100		>2	
COc1c(Br)cccc1C(=O)Nc1ccc(Sc2nc3ccccc3s2)cc1 [Compound 34, N-(4-(Benzo[d]thiazol-2-ylthio)phenyl)-3-bromo-2-methoxybenzamide]									> 100
O=C(Nc1ccc(Sc2nc3ccccc3s2)c(Cl)c1)c1cc(Br)ccc1O [Compound 3, N-(4-(Benzo[d]thiazol-2-ylthio)-3-chlorophenyl)-5-bromo-2-hydroxybenzamide]	moderate to potent inhibitors	1.57 ± 0.35	37	inactive against the reporter enzymes		> 100	selectively inhibit E. coli GroEUES over human HSP60/10		
O=C(Nc1ccc(Sc2nc3ccccc3s2)c(Cl)c1)c1ccccc1 [Compound 19, N-(4-(Benzo[d]thiazol-2-ylthio)-3-chlorophenyl)benzamide]					> 100	> 100			
O=C(Nc1ccc(Sc2nc3ccccc3s2)c(Cl)c1)c1cccc(Br)c1O [Compound 2, N-(4-(Benzo[d]thiazol-2-ylthio)-3-chlorophenyl)-3-bromo-2-hydroxybenzamide]	moderate to potent inhibitors	0.98 ± 0.23	9.5	inactive against the reporter enzymes					
O=C(Nc1ccc(Sc2nc3ccccc3s2)c(Cl)c1)c1cc(Br)cc(Br)c1O [Compound 1, N-(4-(Benzo[d]thiazol-2-ylthio)-3-chlorophenyl)-3,5-dibromo-2-hydroxybenzamide]		0.23 ± 0.28	1.7			> 100			
O=C(Nc1ccccc1)c1cccc(Br)c1O [Compound 14, 3-Bromo-2-hydroxy-N-phenylbenzamide]		>2			> 100	> 100		>2	
O=C(Nc1ccc(Sc2nc3ccccc3s2)cc1)c1cc(Br)cc(Br)c1O [Compound 5, N-(4-(Benzo[d]thiazol-2-ylthio)phenyl)-3,5-dibromo-2-hydroxybenzamide]		0.43 ± 0.19	2.7						
O=C(Nc1ccc(Sc2nc3ccccc3s2)c(Cl)c1)c1ccccc1O [Compound 4, N-(4-(Benzo[d]thiazol-2-ylthio)-3-chlorophenyl)-2-hydroxybenzamide]		1.62 ± 0.32	42			> 100	selectively inhibit E. coli GroEUES over human HSP60/10		
O=C(Nc1cccc(Cl)c1)c1cc(Br)ccc1O [Compound 11, 5-Bromo-N-(3-chlorophenyl)-2-hydroxybenzamide]		>2			> 100	> 100		>2	
O=C(Nc1ccc(Sc2nc3ccccc3s2)cc1)c1cc(Br)ccc1O [Compound 7, N-(4-(Benzo[d]thiazol-2-ylthio)phenyl)-5-bromo-2-hydroxybenzamide]	moderate to potent inhibitors	1.58 ± 0.34	38	inactive against the reporter enzymes		> 100	selectively inhibit E. coli GroEUES over human HSP60/10		
O=C(Nc1ccccc1)c1cc(Br)ccc1O [Compound 15, 5-Bromo-2-hydroxy-N-phenylbenzamide]		>2			> 100	> 100		>2	
CO[C@H]1/C=C/O[C@@]2(C)Oc3c(C)c(O)c4c(O)c(c(/C=N/N5CCN(C)CC5)c(O)c4c3C2=O)NC(=O)/C(C)=C\C=C\[C@H](C)[C@H](O)[C@@H](C)[C@@H](O)[C@@H](C)[C@H](OC(C)=O)[C@@H]1C [Rifampicin, rifampicin, reference compound]									72.4
